Laboratory results taken from PubChem BioAssay (NCI).
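Five compound concentrations were applied to cells in 96-well plates for 48 hours; endpoints were derived by simple linear interpolation of the resulting dose-response curve. At the TGI there is no net growth.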 Where a SMILES comes first, the peptide text is derived from it. [ ]: non-standard residue; d: D form. The star is where a group is joined. NMeAc5c = CNC1(C(=O)O)CCCC1; Boc = CC(C)(C)OC(=O)*; OBn = c1ccc(CO*)cc1

Columns and labels:
Test in all cases: DTP human tumour cell line panel, 48 h
[1] = test system: SN12C renal
[2] = test system: CAKI-1 renal
[3] = test system: MDA-N
[4] = test system: HS 578T breast
[5] = test system: SW-620 colon
[6] = test system: SF-268 CNS
[7] = test system: OVCAR-5 ovarian
[8] = test system: 786-0 renal
[9] = test system: SF-539 CNS
[10] = test system: SR leukemia
[11] = test system: SNB-75 CNS
[12] = test system: U251 CNS

Row | Structure (SMILES) | TGI [1] [µM] | TGI [2] [µM] | TGI [3] [µM] | TGI [4] [µM] | TGI [5] [µM] | TGI [6] [µM] | TGI [7] [µM] | TGI [8] [µM] | TGI [9] [µM] | TGI [10] [µM] | TGI [11] [µM] | TGI [12] [µM]
1 | COC(=O)c1cc(=O)nc2sc3cccc(C)c3n12 | > 100 | 61 | > 100 | > 100 | > 100 | > 100 | > 100 | 47.3 | > 100 | > 100 | > 100 | > 100
2 | CN1CCc2cc(N)cc3c2C1Cc1ccc(O)c(O)c1-3 (stereo unspecified) | > 100 | > 100 | > 100 | > 100 | > 100 | > 100 | > 100 | > 100 | > 100 | > 100 | > 100 | > 100
3 | CCOC(=O)/C=C/CC(C)(C)CCOC(C)=O | > 10 | > 10 | > 10 | > 10 | > 10 | > 10 | > 10 | > 10 | > 10 | > 10 | > 10 | > 10
4 | COC(=O)c1ccccc1CC1Cc2ccc3c(c2C1=O)CCCC3 (stereo unspecified) | > 100 | > 100 | > 100 | > 100 | > 100 | > 100 | > 100 | > 100 | > 100 | 24.5 | > 100 | > 100
5 | COc1cc2c(c(OC)c1OC)C(=O)[C@@H]1[C@H]2N1C(N)=O | > 100 | > 100 | > 100 | > 100 | > 100 | > 100 | > 100 | > 100 | > 100 | > 100 | > 100 | > 100
6 | CC(C)(C)N1CSC(=S)N(Cc2ccco2)C1 | 16.7 | 12.4 | 16.5 | 26.1 | 11.9 | 15.1 | 11.7 | 11.5 | 2.62 | 3.55 | 26.4 | 14.4
7 | CCCCCCCCCCCCCCNC(=O)CCC(NC(=O)c1ccc(N(C)Cc2cnc3nc(N)nc(N)c3n2)cc1)C(=O)NCCCCCCCCCCCCCC (stereo unspecified) | 33.8 | > 100 | 21.9 | 29.1 | > 43 | 22.4 | > 48.3 | 52.1 | 16.3 | 21.8 | 34.8 | 32.6
8 | O=c1c2cc([N+](=O)[O-])cnc2sn1-c1ccc([N+](=O)[O-])cc1 | > 100 | – | > 100 | 90 | > 100 | 67.6 | > 100 | > 100 | > 100 | 54.6 | > 100 | > 100
9 | O=c1[nH]c(Nc2cccc(CC(F)(F)F)c2)nc2nc[nH]c12 | > 100 | > 100 | > 100 | > 100 | > 100 | > 100 | > 100 | > 100 | > 100 | > 100 | > 100 | > 100
10 | Cc1ccccc1C(=O)N1CCc2c([nH]c3ccccc23)C1 | 34.1 | 79.5 | 43.9 | 84.8 | > 100 | > 100 | 76.3 | 54.4 | 48.4 | 50 | 61.9 | 41.3
11 | Cc1ccc([N+](=O)[O-])cc1NC1=NCCO1 | > 100 | > 100 | > 100 | > 100 | > 100 | > 100 | > 100 | > 100 | > 100 | > 100 | > 100 | > 100
12 | CCOC(=O)C(SCCO)C(C(=O)OCC)n1cnc2c(=O)[nH]c(NC(C)=O)nc21 (stereo unspecified) | > 100 | > 100 | > 100 | > 100 | > 100 | > 100 | > 100 | > 100 | > 100 | > 100 | > 100 | > 100
13 | COc1cc(Br)cc2cc(-c3cn4ccsc4n3)c(=O)oc12 | > 100 | > 100 | 42.2 | > 100 | > 100 | > 100 | > 100 | > 100 | > 100 | > 100 | > 100 | > 100
14 | CC1(C)N=[N+]([O-])C1(C)C | > 100 | > 100 | > 100 | > 100 | > 100 | > 100 | > 100 | > 100 | > 100 | > 100 | > 100 | > 100
15 | Nn1c(-c2ccccc2)nn(C(=O)c2ccccc2)c1=O | > 100 | – | > 100 | > 100 | > 100 | > 100 | > 100 | > 100 | > 100 | > 100 | > 100 | > 100
16 | COc1ccc(C2CC(c3c(O)ccc4ccccc34)=NN2C(C)=O)cc1OC (stereo unspecified) | > 100 | > 100 | 56.4 | > 100 | > 100 | > 100 | > 100 | > 100 | 48.9 | 40.6 | > 100 | > 100
17 | N#Cc1c(N2CCCC2)ncn(-c2ccccc2)c1=O | > 100 | > 100 | > 100 | > 100 | > 100 | > 100 | > 100 | > 100 | > 100 | > 100 | > 100 | > 100
18 | COc1ccc(-c2cc(O)c3nc4ccccc4n3c2)cc1 | > 100 | > 100 | > 100 | > 100 | > 100 | > 100 | – | > 100 | > 100 | > 100 | > 100 | > 100

Row | Structure (SMILES) | TGI [1] [µM] | TGI [2] [µM] | TGI [3] [µM] | TGI [4] [µM] | TGI [5] [µM] | TGI [6] [µM] | TGI [7] [µM] | TGI [8] [µM] | TGI [9] [µM] | TGI [10] [µM] | TGI [11] [µM] | TGI [12] [µM]
19 | C=CCN1C[C@H](C)N([C@H](c2ccc(C(=O)NC(CC)CC)cc2)c2cccc(OC)c2)C[C@H]1C | > 100 | 65.1 | > 100 | > 100 | > 100 | > 100 | > 100 | > 100 | 43.4 | 44.4 | > 100 | > 100
20 | CCOC(=O)c1csc(NC(=O)CN2CCOCC2)n1 | – | > 100 | > 100 | > 100 | > 100 | > 100 | > 100 | – | > 100 | > 100 | > 100 | > 100
21 | CCOC(=O)CSc1c(C(=O)OCC)c(=O)n(-c2ccccc2)c(=S)n1-c1ccccc1 | > 100 | > 100 | > 100 | > 100 | > 100 | > 100 | > 100 | > 100 | – | > 100 | > 100 | > 100
22 | O=C1CSC(c2ccc(Cl)cc2)N1c1ccc(Oc2ccc(Cl)cc2)c(Cl)c1 (stereo unspecified) | 38.6 | 26 | 30.4 | 27.5 | 45 | 24 | 29.6 | 30.5 | 30.4 | 41 | 24.7 | 36.2
23 | CCCCCCc1cc2cc(-c3csc(CC#N)n3)c(=O)oc2cc1O | > 100 | > 100 | > 100 | > 100 | > 100 | > 100 | > 100 | > 64.2 | > 64.5 | > 100 | > 100 | > 100
24 | CN(C(=O)C(Cc1ccccc1)NC(=O)OC(C)(C)C)C1(C(=O)NC(Cc2ccccc2)C(=O)OCc2ccccc2)CCCC1 (stereo not drawn) (Boc-Phe-[NMeAc5c]-Phe-OBn; configuration not given here) | > 100 | – | 65.4 | > 100 | > 100 | > 100 | > 100 | > 100 | > 100 | 69.1 | > 100 | 51.1
25 | O=C1/C(=C\c2ccccc2)C(NC2CCCCC2)c2ccccc21 (stereo unspecified) | 4.37 | 2.83 | 3.8 | 16.3 | 2.12 | 13 | 10.4 | 2.14 | 4.39 | 0.473 | 4.45 | 3.48
26 | COc1cccc(C(=O)O[C@H]2[C@@H]3[C@]4(OC(C)=O)CO[C@@H]4C[C@H](O)[C@@]3(C)C(=O)[C@H](OC(C)=O)C3=C(C)[C@@H](OC(=O)[C@H](O)[C@@H](NC(=O)OC(C)(C)C)c4ccco4)C[C@]2(O)C3(C)C)c1 | > 37.5 | > 37.5 | 0.0382 | 3.4 | > 37.5 | > 37.5 | > 22.8 | > 37.5 | 0.33 | > 14.8 | 0.0241 | > 16.6
27 | CCCN(C(=O)c1ccccc1)C(C#N)c1ccc(C(C#N)N(CCC)C(=O)c2ccccc2)cc1 (stereo unspecified) | > 100 | > 100 | > 100 | 86.7 | > 100 | > 100 | > 100 | > 100 | 87.6 | > 100 | 73.3 | > 100
28 | Cc1nc2n(c1/C=C1/C(=O)Nc3cccc(Cl)c31)CCS2 | > 100 | > 100 | > 100 | 53.9 | > 100 | 52.1 | > 100 | > 100 | 35.2 | > 100 | 37.5 | 34.7
29 | COC(=O)c1c(C)cccc1C1CN=NC12Cc1ccc(C)cc1C2=O (stereo unspecified) | > 100 | > 100 | > 100 | > 100 | > 100 | > 100 | > 100 | > 100 | > 100 | > 100 | > 100 | > 100
30 | C=CC1(C)CCC2C(=CCC3C2(C)CC(O)C(O)C3(C)COC2OC(C(=O)O)C(O)C(O)C2O)C1 (stereo unspecified) (tested in a mixture with another compound) | > 100 | > 100 | > 100 | > 100 | > 100 | > 100 | > 100 | > 100 | > 100 | > 100 | > 100 | > 100
31 | O=C1CCCSC(=O)N1Cc1ccccc1 | > 100 | > 100 | > 100 | > 100 | > 100 | > 100 | > 100 | > 100 | > 100 | > 100 | > 100 | –
32 | CN(C)C(=O)O/N=C1/C(c2c(O)[nH]c3ccccc23)=Nc2ccccc21 | > 100 | 72.6 | > 100 | 40.2 | > 100 | 28.5 | > 100 | 21.8 | 21.4 | 35.4 | 8.69 | 33.9
33 | c1ccc(-c2nc(-c3ccccc3SSc3ccccc3-c3nc(-c4ccccc4)nn3-c3ccccc3)n(-c3ccccc3)n2)cc1 | > 100 | > 100 | > 100 | > 100 | > 100 | > 100 | > 100 | > 100 | > 100 | > 100 | > 100 | > 100
34 | [N-]=[N+]=NC[C@H]1OCO[C@H](CN=[N+]=[N-])[C@@H](OCCOCCCl)[C@@H]1OCCOCCCl | > 100 | > 100 | > 100 | > 100 | > 100 | > 100 | – | > 100 | > 100 | > 100 | > 100 | > 100
35 | NC(=O)NCCCC(NC(=O)OCCCCn1ccc(=O)[nH]c1=O)C(=O)O (stereo unspecified) | > 100 | > 100 | > 100 | > 100 | > 100 | > 100 | > 100 | > 100 | > 100 | > 100 | > 100 | > 100
